{"source": "patent US11370798B2", "about": "(Vertex Pharmaceuticals Incorporated, priority 2012, dated 2022)"}
{"tested_on": "HCT116 colorectal cancer cells", "test": "Cisplatin sensitization assay (96 h cell viability MTS);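 further: Test-compound concentration that lowers the Cisplatin IC50 by a set fold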", "assay_type": "cell-based", "conditions": "compound and Cisplatin added simultaneously, Cisplatin sensitization value", "summary_of_the_method": "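Compound and cisplatin added together as a full matrix of 2-fold serial dilutions from a top final concentration of 10 μM; cells incubated 96 h at 37° C, 5% CO2. Viability then read by MTS after 1 h further incubation; sensitization value reported in μM bins.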"}
{"smiles": "Nc1nn2cc(F)cnc2c1C(=O)Nc1cnccc1N1CCC(C(=O)N2CC(F)C2)CC1", "note": "[I-G-82, 2-amino-6-fluoro-N-(4-(4-(3-fluoroazetidine-1-carbonyl)piperidin-1-yl)pyridin-3-yl)pyrazolo[1,5-a]pyrimidine-3-carboxamide]", "Cisplatin Sensitization Assay": "+++ (Cisplatin sensitization value of <0.02 μM)"}
{"smiles": "Nc1nn2cc(Cl)cnc2c1C(=O)Nc1cnccc1N1CCC(N2CCC3(COC3)C2)CC1", "note": "[I-N-99, N-(4-(4-(2-oxa-6-azaspiro[3.4]octan-6-yl)piperidin-1-yl)pyridin-3-yl)-2-amino-6-chloropyrazolo[1,5-a]pyrimidine-3-carboxamide]", "Cisplatin Sensitization Assay": "+++ (Cisplatin sensitization value of <0.02 μM)"}
{"smiles": "CN1CCN(C(=O)C2CCN(c3c(F)cncc3NC(=O)c3c(N)nn4cc(F)cnc34)CC2)CC12CC2", "note": "[I-G-38, 2-amino-6-fluoro-N-(5-fluoro-4-(4-(4-methyl-4,7-diazaspiro[2.5]octane-7-carbonyl)piperidin-1-yl)pyridin-3-yl)pyrazolo[1,5-a]pyrimidine-3-carboxamide]", "Cisplatin Sensitization Assay": "+++ (Cisplatin sensitization value of <0.02 μM)"}
{"smiles": "COC(=O)[C@H]1CC[C@H](Oc2ccncc2NC(=O)c2c(N)nn3cc(F)cnc23)CC1", "note": "[I-O-13, (1r,4r)-methyl 4-((3-(2-amino-6-fluoropyrazolo[1,5-a]pyrimidine-3-carboxamido)pyridin-4-yl)oxy)cyclohexanecarboxylate]", "Cisplatin Sensitization Assay": "+++ (Cisplatin sensitization value of <0.02 μM)"}
{"smiles": "CN1CCC(c2c(F)cncc2NC(=O)c2c(N)nn3cc(F)cnc23)CC1", "note": "[I-C-14, 2-amino-6-fluoro-N-(5-fluoro-4-(1-methylpiperidin-4-yl)pyridin-3-yl)pyrazolo[1,5-a]pyrimidine-3-carboxamide]", "Cisplatin Sensitization Assay": "+ (Cisplatin sensitization value>0.2 μM but <5 μM)"}
{"smiles": "Cc1cccnc1-c1ccncc1NC(=O)c1c(N)nn2cc(F)cnc12", "note": "[I-C-36, 2-amino-6-fluoro-N-(3-methyl-[2,4′-bipyridin]-3′-yl)pyrazolo[1,5-a]pyrimidine-3-carboxamide]", "Cisplatin Sensitization Assay": "+++ (Cisplatin sensitization value of <0.02 μM)"}
{"smiles": "Nc1nn2cc(F)cnc2c1C(=O)Nc1cncc(Cl)c1N1CCN(C2CCOC2)CC1", "note": "(stereo not shown) [I-N-124, 2-amino-N-(5-chloro-4-(4-(tetrahydrofuran-3-yl)piperazin-1-yl)pyridin-3-yl)-6-fluoropyrazolo[1,5-a]pyrimidine-3-carboxamide]", "Cisplatin Sensitization Assay": "+++ (Cisplatin sensitization value of <0.02 μM)"}
{"smiles": "COCC1CCN(c2ccncc2NC(=O)c2c(N)nn3cc(F)cnc23)CC1", "note": "[I-N-282, 2-amino-6-fluoro-N-(4-(4-(methoxymethyl)piperidin-1-yl)pyridin-3-yl)pyrazolo[1,5-a]pyrimidine-3-carboxamide]", "Cisplatin Sensitization Assay": "+++ (Cisplatin sensitization value of <0.02 μM)"}
{"smiles": "Nc1nn2cc(Cl)cnc2c1C(=O)Nc1cnccc1N1CC[S+]([O-])CC1", "note": "[I-N-68, 2-amino-6-chloro-N-(4-(1-oxidothiomorpholino)pyridin-3-yl)pyrazolo[1,5-a]pyrimidine-3-carboxamide]", "Cisplatin Sensitization Assay": "+++ (Cisplatin sensitization value of <0.02 μM)"}
{"smiles": "CN1CCC(Oc2ccncc2NC(=O)c2c(N)nn3cc(CC#N)cnc23)CC1", "note": "[I-O-23, 2-amino-6-(cyanomethyl)-N-(4-((1-methylpiperidin-4-yl)oxy)pyridin-3-yl)pyrazolo[1,5-a]pyrimidine-3-carboxamide]", "Cisplatin Sensitization Assay": "+++ (Cisplatin sensitization value of <0.02 μM)"}
{"smiles": "Nc1nn2cc(F)cnc2c1C(=O)Nc1cnccc1O[C@H]1Cc2nccn2C1", "note": "[I-O-16, (S)-2-amino-N-(4-((6,7-dihydro-5H-pyrrolo[1,2-a]imidazol-6-yl)oxy)pyridin-3-yl)-6-fluoropyrazolo[1,5-a]pyrimidine-3-carboxamide]", "Cisplatin Sensitization Assay": "+++ (Cisplatin sensitization value of <0.02 μM)"}
{"smiles": "CN(C)C(=O)C1CN(c2ccncc2NC(=O)c2c(N)nn3cc(F)cnc23)CCO1", "note": "(stereo not shown) [I-N-234, 4-(3-(2-amino-6-fluoropyrazolo[1,5-a]pyrimidine-3-carboxamido)pyridin-4-yl)-N,N-dimethylmorpholine-2-carboxamide]", "Cisplatin Sensitization Assay": "+ (Cisplatin sensitization value>0.2 μM but <5 μM)"}
{"smiles": "Nc1nn2cc(F)cnc2c1C(=O)Nc1cncc(F)c1N1CCN2C(=O)CC[C@@H]2C1", "note": "[I-N-186, (R)-2-amino-6-fluoro-N-(5-fluoro-4-(6-oxohexahydropyrrolo[1,2-a]pyrazin-2(1H)-yl)pyridin-3-yl)pyrazolo[1,5-a]pyrimidine-3-carboxamide]", "Cisplatin Sensitization Assay": "+++ (Cisplatin sensitization value of <0.02 μM)"}
{"smiles": "NCC1CCN(c2ccncc2NC(=O)c2c(N)nn3cc(Cl)cnc23)CC1", "note": "[I-N-91, 2-amino-N-(4-(4-(aminomethyl)piperidin-1-yl)pyridin-3-yl)-6-chloropyrazolo[1,5-a]pyrimidine-3-carboxamide]", "Cisplatin Sensitization Assay": "++ (Cisplatin sensitization value>0.02 μM but <0.2 μM)"}
{"smiles": "CN1CCC(C(=O)N2CCC(c3ccncc3NC(=O)c3c(N)nn4cc(F)cnc34)CC2)CC1", "note": "[I-C-16, 2-amino-6-fluoro-N-(4-(1-(1-methylpiperidine-4-carbonyl)piperidin-4-yl)pyridin-3-yl)pyrazolo[1,5-a]pyrimidine-3-carboxamide]", "Cisplatin Sensitization Assay": "+ (Cisplatin sensitization value>0.2 μM but <5 μM)"}
{"smiles": "CC(C)(C)NC(=O)C1CCN(c2c(F)cncc2NC(=O)c2c(N)nn3cc(F)cnc23)CC1", "note": "[I-G-19, 2-amino-N-(4-(4-(tert-butylcarbamoyl)piperidin-1-yl)-5-fluoropyridin-3-yl)-6-fluoropyrazolo[1,5-a]pyrimidine-3-carboxamide]", "Cisplatin Sensitization Assay": "++ (Cisplatin sensitization value>0.02 μM but <0.2 μM)"}
{"smiles": "Nc1nn2cc(F)cnc2c1C(=O)Nc1cncc(C2CC2)c1N1CCN([C@H]2CCOC2)CC1", "note": "[I-N-120, (S)-2-amino-N-(5-cyclopropyl-4-(4-(tetrahydrofuran-3-yl)piperazin-1-yl)pyridin-3-yl)-6-fluoropyrazolo[1,5-a]pyrimidine-3-carboxamide]", "Cisplatin Sensitization Assay": "+++ (Cisplatin sensitization value of <0.02 μM)"}
{"smiles": "Nc1nn2cc(F)cnc2c1C(=O)Nc1cncc(F)c1N1CCC(C(=O)N2CCNC3(CC3)C2)CC1", "note": "[I-G-28, N-(4-(4-(4,7-diazaspiro[2.5]octane-7-carbonyl)piperidin-1-yl)-5-fluoropyridin-3-yl)-2-amino-6-fluoropyrazolo[1,5-a]pyrimidine-3-carboxamide]", "Cisplatin Sensitization Assay": "+++ (Cisplatin sensitization value of <0.02 μM)"}
{"smiles": "N#CCc1cnc2c(C(=O)Nc3cnccc3OC3COC3)c(N)nn2c1", "note": "[I-O-38, 2-amino-6-(cyanomethyl)-N-(4-(oxetan-3-yloxy)pyridin-3-yl)pyrazolo[1,5-a]pyrimidine-3-carboxamide]", "Cisplatin Sensitization Assay": "+++ (Cisplatin sensitization value of <0.02 μM)"}
{"smiles": "N#CCc1cnc2c(C(=O)Nc3cnccc3N3CCCCC3)c(N)nn2c1", "note": "[I-N-84, 2-amino-6-(cyanomethyl)-N-(4-(piperidin-1-yl)pyridin-3-yl)pyrazolo[1,5-a]pyrimidine-3-carboxamide]", "Cisplatin Sensitization Assay": "+++ (Cisplatin sensitization value of <0.02 μM)"}
{"smiles": "Nc1nn2cc(F)cnc2c1C(=O)Nc1cncc(Cl)c1N1CCCC1", "note": "[I-N-281, 2-amino-N-(5-chloro-4-(pyrrolidin-1-yl)pyridin-3-yl)-6-fluoropyrazolo[1,5-a]pyrimidine-3-carboxamide]", "Cisplatin Sensitization Assay": "+++ (Cisplatin sensitization value of <0.02 μM)"}
{"smiles": "COc1ccncc1NC(=O)c1c(N)nn2cc(C(C)C#N)cnc12", "note": "(stereo not shown) [I-O-21, 2-amino-6-(1-cyanoethyl)-N-(4-methoxypyridin-3-yl)pyrazolo[1,5-a]pyrimidine-3-carboxamide]", "Cisplatin Sensitization Assay": "++ (Cisplatin sensitization value>0.02 μM but <0.2 μM)"}
{"smiles": "Nc1nn2cc(F)cnc2c1C(=O)Nc1cnccc1N1CCN2CCC1CC2", "note": "[I-N-18, N-(4-(1,4-diazabicyclo[3.2.2]nonan-4-yl)pyridin-3-yl)-2-amino-6-fluoropyrazolo[1,5-a]pyrimidine-3-carboxamide]", "Cisplatin Sensitization Assay": "++ (Cisplatin sensitization value>0.02 μM but <0.2 μM)"}
{"smiles": "CC(C)(O)C1CCN(c2ccncc2NC(=O)c2c(N)nn3cc(Cl)cnc23)CC1", "note": "[I-N-69, 2-amino-6-chloro-N-(4-(4-(2-hydroxypropan-2-yl)piperidin-1-yl)pyridin-3-yl)pyrazolo[1,5-a]pyrimidine-3-carboxamide]", "Cisplatin Sensitization Assay": "+++ (Cisplatin sensitization value of <0.02 μM)"}
{"smiles": "Nc1nn2cc(F)cnc2c1C(=O)Nc1cnccc1-c1cccnc1Cl", "note": "[I-C-37, 2-amino-N-(2-chloro-[3,4′-bipyridin]-3′-yl)-6-fluoropyrazolo[1,5-a]pyrimidine-3-carboxamide]", "Cisplatin Sensitization Assay": "+++ (Cisplatin sensitization value of <0.02 μM)"}
{"smiles": "Nc1nn2cc(F)cnc2c1C(=O)Nc1cnccc1-c1ccc(C(=O)N2CCC(N3CCCC3)CC2)nc1", "note": "[I-C-53, 2-amino-6-fluoro-N-(6-(4-(pyrrolidin-1-yl)piperidine-1-carbonyl)-[3,4′-bipyridin]-3′-yl)pyrazolo[1,5-a]pyrimidine-3-carboxamide]", "Cisplatin Sensitization Assay": "+++ (Cisplatin sensitization value of <0.02 μM)"}
{"smiles": "CN1CCN(S(=O)(=O)C2CCN(c3c(F)cncc3NC(=O)c3c(N)nn4cc(F)cnc34)CC2)CC1", "note": "[I-N-166, 2-amino-6-fluoro-N-(5-fluoro-4-(4-((4-methylpiperazin-1-yl)sulfonyl)piperidin-1-yl)pyridin-3-yl)pyrazolo[1,5-a]pyrimidine-3-carboxamide]", "Cisplatin Sensitization Assay": "+++ (Cisplatin sensitization value of <0.02 μM)"}
{"smiles": "Nc1nn2cc(F)cnc2c1C(=O)Nc1cncc(F)c1N1CC(=O)N2CCCC2C1", "note": "(stereo not shown) [I-N-232, 2-amino-6-fluoro-N-(5-fluoro-4-(4-oxohexahydropyrrolo[1,2-a]pyrazin-2(1H)-yl)pyridin-3-yl)pyrazolo[1,5-a]pyrimidine-3-carboxamide]", "Cisplatin Sensitization Assay": "++ (Cisplatin sensitization value>0.02 μM but <0.2 μM)"}
